# From US20020165216A1, “Cobalt-porphyrin complexes and use thereof as an anti-obesity agent” (MitoKor, priority 2000, published 2002)
# Read-outs that look alike come from different tables or passages of the source.
# What was measured:
# Weight loss assay = assay type: in vivo, Male Sprague Dawley rats; conditions: 12 mM in vehicle, 400 μl per 100 grams body weight, subcutaneous, nuchal area, 8 days
# Protocol: Male Sprague Dawley rats (approximately 200 g) were purchased from Charles River Canada, Inc. and were shipped to the Animal Care Facility at the University of Vermont. Upon arrival they were housed in separate cages with corncob bedding and ad lib access to tap water and purina rat chow. The animal facility is maintained at a temperature of 71° F. +/− 1° F. with a 12-hour light/dark cycle, lights on at 6:00 am and off at 6:00 pm. Two days later (Day-3) all rats were shaved in the nuchal area and baseline color photographs of the nuchal area were taken (light halothane anesthesia was utilized to facilitate the shaving). Three days later (Day 0) experimental compounds were made up at 12 mM concentrations in vehicle (i.e., saline:PEG400:EtOH (5:4:1), pH 7.4). Animals were injected subcutaneously in the nuchal area with the various stock solutions at a dose of 400 μl per 100 grams body weight. Typical injection volumes, therefore, range from 1 to 1.5 ml per animal. Animals were injected using a modified Z-track technique to try and minimize outflow of injected compounds due to the high volume utilized. Each animal was weighed prior to injection and all injections were accomplished in an approximately two-hour period. No anesthesia was utilized for injections.
# Animals subsequently underwent daily weighing with a Mettler 6 second integrating balance and had ad lib access to tap water and purina rat chow. At various intervals after injections, the nuchal area of rats was again photographed. […] The scale used was 0 for no lesions, 5 for the worst lesions with breakdown of the skin and open flow of exudates. Grades in-between were estimated by the operator based on the size and severity of the lesion. […] After 8 days, final photographs were taken and all animals were euthanized, marking the end of the experiment.
# Means of body weights for each group were calculated and plotted over time (FIG. 9A), as were numerical means of the lesion severity index (FIG. 9B). In FIGS. 9A and 9B, C=noninjected control, V=vehicle injected control, A=Co-MP, E=Cpd. No. (1-6) and F=Cpd. No. (4-4). […] Cpd.
# [1] = tested on: SH-SY5Y neuroblastoma cells; assay: Cellular assay for generation of reactive oxygen species (ROS); assay type: cell-based; conditions: for generation of reactive oxygen species (DCFC-DA fluorescence): 30 minutes with test compound
# Protocol: All cell culture reagents were incubated in a water bath at 37° C. for approximately 30 minutes. Existing media from a near confluent tissue culture flask containing SH-SY5Y neuroblastoma cells was aspirated using a flame sterilized glass transfer pipette attached to a trapped vacuum apparatus. Calcium free PBS buffer was pipetted into the tissue culture flask (2 ml for a 75 cm2 flask, 3 ml for a 175 cm^2 flask). The flask was tipped slightly to ensure that the buffer covers the cell culture and then the buffer was removed by aspiration. Trypsin media was pipetted into the tissue culture flask (2 ml for a 75 cm^2 flask, 3 ml for a 175 cm^2 flask) and evenly spread to ensure that the trypsin covered the cell culture. The cell culture was incubated with trypsin media for 4-6 minutes at room temperature. After cells were released from the flask, the flask was tilted to one corner. Using the existing media within the flask, the aggregated cells were collected towards one corner and repeatedly pipetted to obtain a single cell suspension. The cell suspension was transferred with a pipette into a 15 ml conical shaped centrifuge tube then cell culture media was added to the suspension up to a total volume of 14 ml. Ten μl aliquots were withdrawn and the cells were counted using a hemocytometer. The suspension was centrifuged at 200×g for 10 minutes, the supernatant was aspirated off, and the cell pellet was resuspended at 3.75×10^5 cells/ml in cell culture medium. Two hundred μl of cell suspension were aliquoted per well in the 96 well dish to obtain a final cell number of 75,000 cells per well. The plates were incubated overnight at 37° C. and 5% CO2 in a humidified cell incubator.
# The medium was carefully removed from the wells by aspiration with an 18 g needle. The wells were gently rinsed once with 200 μl of warm Hanks balanced saline solution (HBSS, Gibco-BRL). […]
# Stock solutions of test compound, such as Co-PP, Co-MP, or a Co-P of this invention, and of an H2O2 scavenger such as ebselen, were typically prepared in dimethylformamide or dimethylsulfoxide and diluted further into working concentrations using HBSS. […] The plate was read immediately in Cytofluor model 2350 system (Millipore; excitation wavelength: 485 nm; emission wavelength: 530 nm) for a 0 min timepoint reading. The cells were incubated for 30 minutes at room temperature with test compound following which a 30 min reading was taken. The change in RMF over the 30 minutes period was calculated for each well. […] The plate was then read in the Cytofluor (excitation wavelength: 360 nm; emission wavelength: 460 nm) and the Hoechst fluorescence values were used to normalize the DCFC-DA RMF data.
# [2] = Oxygen consumption catalyzed by Co-P in the presence of ascorbate/TMPD (Clark oxygen electrode); conditions: 2 mM ascorbate, 40 μM TMPD; for Relative Rate (oxygen consumption), effect of ligand, R5 and A moiety: Table 3; for O2 consumption / redox cycling (in words): cell free ascorbate/TMPD system; for Relative Rate (oxygen consumption), effect of ligand, R5, A and n moiety: Table 4
# Protocol: (Co-MP). Such activity can be readily determined by, for example, the assay disclosed in Example 16. In that assay, redox activity is measured by oxygen consumption catalyzed by a Co-P test compound in the presence of ascorbate and TMPD.
# Ten mM stock solutions of a Co-P of this invention (i.e., test compound) were prepared using ethanol as solvent. KCl media consists of 125 mM KCl, 2 mM K2HPO4, 20 mM HEPES, pH 7.0. Oxygen consumption measurements were carried out using a Clark type oxygen electrode (Rank Brothers Ltd., Cambridge, UK) and assay solutions were magnetically stirred during the course of the experiments. To 500 μl of assay solution (KCl media supplemented with 2 mM sodium ascorbate and 40 μM […] (TMPD)) is added 2 μl of a stock solution of test compound (40 μM final concentration) and the oxygen consumption rate is followed for 2-4 min. Subsequently, a 5 μl aliquot of a freshly made catalase solution (100 mg/ml solution in KCl media) is added to determine if H2O2 is generated via redox cycling of the test compound.
# Initial rates are calculated from oxygen consumption slopes and rate of a solvent control is subtracted. […] An aliquot of a 10 mM stock solution of Co-MP (final concentration of 40 μM) was added to assay buffer containing 2 mM of ascorbate and 40 μM of TMPD. […] Addition of catalase results in conversion of H2O2 present in the assay solution to O2 and H2O.
# Stock solutions of the test compound were at 10 mM. Aliquots of the stock solutions were added to 500 μl of assay buffer containing 2 mM of ascorbate and 40 μM of TMPD.
# Representative Co-P compounds of this invention were prepared by the procedures disclosed above, and assayed by the procedure of Example 16 to measure oxygen consumption catalyzed by the test compound in the presence of ascorbate/TMPD. […] The above procedure was then repeated for other representative Co-P compounds of this invention, but utilizing different ligands and/or R groups.
# reduced cytochrome c = reduced cytochrome c (Homo sapiens, UniProt P99999); assay: Oxidation of reduced cytochrome c by Co-PP; assay type: biochemical; conditions: reduced cytochrome c 5.3, 10.5, 26 μM; 0-100 μM CoPP; absorbance at 550 nm
# Protocol: Reduced cytochrome c was prepared by the addition of an excess of ascorbic acid to a solution of cytochrome c and allowing the solution to stand for 5 to 10 minutes. The reduced protein was purified over a Sephadex G50 column and checked spectrophotometrically by measuring absorbance at 550 nm, followed by the addition of a few grains of dithionite and measuring absorbance again at 550 nm. […] Initial rates of oxidation of reduced cytochrome c at three concentrations (5.3 μM, 10.5 μM and 26 μM) were followed in the presence of 0, 5,10, 20 and 100 μM CoPP. Assays were conducted in 1 ml of assay buffer (20 mM potassium phosphate, pH 7.0, 0.2 mg/ml dodecyl-β-maltoside) and initiated by the addition of desired concentration of reduced cytochrome c and monitoring the change in absorbance at 550 nm for 90 seconds. The fully oxidized absorbance value was determined by the addition of a few grains of ferricyanide to the cuvette. […] In a biological system, Co-PP can transfer electrons from an electron rich donor/reductant to molecular oxygen, O2, to generate reactive oxygen species, the production of which can be toxic to cells and give rise to undesirable side effects (e.g. oxidative stress).
# [3] = cited from earlier work
# [4] = subcutaneous administration, Zucker rats fa/fa; cited from earlier work
# [5] = high doses; cited from earlier work
# [6] = 40 μM test compound, normalized to chloride salt of Co-MP = 1
# reduced cytochrome c, sequence (P99999 whole entry): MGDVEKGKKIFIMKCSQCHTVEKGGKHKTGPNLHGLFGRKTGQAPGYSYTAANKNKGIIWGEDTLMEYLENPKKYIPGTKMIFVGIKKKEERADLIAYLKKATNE
molecule,measurement,setting,value
"CCC1=C(C)c2cc3[n-]c(cc4nc(cc5[n-]c(cc1n2)c(C)c5CCC(=O)NC(C)C)C(CCC(=O)NC(C)C)=C4C)c(C)c3CC.NCC(=O)O.NCC(=O)[O-].[Co+3] [(4-4), Cobalt (III) mesoporphvrin IX bisglycinate, di—(N-isopropyl)amide]",body weight response,Weight loss assay,favorable body weight responses
"C=CC1=C(C)c2cc3[n-]c(cc4nc(cc5[n-]c(cc1n2)c(C)c5CCC(=O)[O-])C(CCC(=O)[O-])=C4C)c(C)c3C=C.[Co+2].[H+].[H+] [Co-PP, Cobalt protoporphyrin]",generation of reactive oxygen species (DCFC-DA fluorescence),[1],reactive oxygen species were induced
same,"Relative Rate (oxygen consumption), effect of ligand, R5 and A moiety",[2]; [6],2.2
same,oxidation of reduced cytochrome c,reduced cytochrome c,serves as an electron acceptor from reduced cytochrome c
same,body weight,[3]; single subcutaneous injection,sustained decrease in body weight
same,carcass composition,[3]; single subcutaneous injection,decreases in carcass fat content without changes in protein content
same,food intake,[3]; single subcutaneous injection,prompt dose-dependent decrease in food intake
same,food intake and body weight effect,"[3]; smaller doses, intracerebroventricular administration",elicit the same effect
same,body weight,[4],long-sustained reduction in body weight
same,heme oxygenase induction,[5],induction of heme oxygenase
same,oxidative stress,[5],oxidative stress has been associated with administration of high doses
"O=c1c2ccccc2[se]n1-c1ccccc1 [ebelsen, ebselen]",scavenging of reactive oxygen species induced by Co-PP and Co-MP,[1],scavanges the reactive oxygen species
c1c[nH]cn1 [imidazole],O2 consumption / redox cycling (in words),[2],blocks generation of reactive oxygen species
Cobalt (III) Mesioirogyrin IX [(11-1)],"Relative Rate (oxygen consumption), effect of ligand, R5, A and n moiety",[2]; [6],0.0005
Cobalt (III) Mesoporphyrin IX Diacetate [(7-1)],"Relative Rate (oxygen consumption), effect of ligand, R5, A and n moiety",[2]; [6],0.07
Cobalt (III) Mesoporphyrin IX Dibenzyl Ester [(8-1)],"Relative Rate (oxygen consumption), effect of ligand, R5, A and n moiety",[2]; [6],0.045
Cobalt (III) Mesoporphyrin IX Dimethyl Ester [(5-1)],"Relative Rate (oxygen consumption), effect of ligand and R5 moiety","[2]; Table 2, 40 μM test compound, normalized to chloride salt of Co-MP = 1",0.05-0.07
Cobalt (III) Mesoporphyrin IX Diol [(6-1)],"Relative Rate (oxygen consumption), effect of ligand, R5, A and n moiety",[2]; [6],0.56
Cobalt (III) Mesoporphyrin IX Dithiobenzyl Ether [(10-1)],"Relative Rate (oxygen consumption), effect of ligand, R5, A and n moiety",[2]; [6],0.021
Cobalt (III) Mesoporphyrin IX bisglycinate monosodium salt dibutyl ester [(1-2)],"Relative Rate (oxygen consumption), effect of ligand, R5 and A moiety",[2]; [6],(not detected)
Cobalt (III) Mesoporphyrin IX bisglycinate monosodium salt diisopropyl ester [(1-6)],"Relative Rate (oxygen consumption), effect of ligand, R5 and A moiety",[2]; [6],(not detected)
same,body weight response,Weight loss assay,favorable body weight responses
"Cobalt (III) Mesoporphyrin IX bisglycinate monosodium salt, diethyl ester [(1-5)]","Relative Rate (oxygen consumption), effect of ligand, R5 and A moiety",[2]; [6],0.08 ± 0.01
"Cobalt (III) Mesoporphyrin IX bisglycinate monosodium salt, diisoamyl ester [(1-4)]","Relative Rate (oxygen consumption), effect of ligand, R5 and A moiety",[2]; [6],(not detected)
"Cobalt (III) Mesoporphyrin IX bisglycinate monosodium salt, diisobutyl ester [(1-3)]","Relative Rate (oxygen consumption), effect of ligand, R5 and A moiety",[2]; [6],(not detected)
"Cobalt (III) Mesoporphyrin IX bisglycinate monosodium salt, dimethyl ester [(1-1)]","Relative Rate (oxygen consumption), effect of ligand, R5 and A moiety",[2]; [6],0.21 ± 0.04
"Cobalt (III) mesoporphyrin IX bisimidazole, di(4-methoxybenzyl) amide [(4-2)]",generation of reactive oxygen species (DCFC-DA fluorescence),[1],does not trigger generation of reactive oxygen species
same,"Relative Rate (oxygen consumption), effect of ligand, R5 and A moiety",[2]; [6],(not detected)
same,O2 consumption / redox cycling (in words),[2],does not result in any O2 consumption
